Here are results for 7 compounds from patent publication US20090234023A1, “SUBSTITUTED HYDROXYACETOPHENONE DERIVATIVES” (Riemser Arzneimittel AG, priority 2004, published 2009).

Molecules are shown by their SMILES. Converted amounts (≈) assume the structure as drawn. Where two headings read alike, the source gives them in different places.

Series [1] has as its system human cancer cell lines NCI-460, MCF-7, NCI-ADR, UACC-62, K-562, HT-29, 786-0, OVCAR-3, PC-3. Put plainly: SRB test, all tested human cancer cell lines (FIGS. 1-6). On the technique in general: In SRB staining, fixed cells bind dye roughly in proportion to their protein.
Protocol: (§2) The tests were carried out with the following human cancer cell lines:
(§3) The cells were cultivated in 25 ml cell culture flasks (Nunc) with 5 ml RPMI 1640 (Gibco BRL, Life Technologies) with 5% of foetal bovine serum.
(§4) The adhering cells were trypsinised (0.5 ml trypsin, Nuticell Nutrientes Cellulares). The trypsin was then inactivated by adding 5 ml 5% serum in RPMI 1640. A single cell suspension was prepared by pipetting carefully, the cells were counted, dilutions with an appropriate cell density, varying according to the cell line, were prepared and 100 μl/well were seeded in 96-well microtitre plates. The microtitre plates were pre-incubated for 24 hours at 37° C. to stabilise the cultures. The cells were incubated for 48 hours at 37° C. and 5% CO2 with 100 μl of the dilutions of the test substances (0.25; 2.5; 25 and 250 μg/ml, in three-fold). Doxirubicin (Sigma Chemical Co.) and tamoxifen (Sigma Chemical Co.) served as positive controls.
(§5) The sulforhodamine B (SRB) test for the antiproliferative activity was carried out according to the specifications of Skehan et al. (Journal of National Cancer Institute Vol. 82, pp. 1107-1118, 1990). The cells were fixed for one hour at 4° C. by protein precipitation with 50% trichloroacetic acid (TCA, Sigma Chemicals Co.) (50 μl/well, final concentration 10%)). The supernatant was discarded and the plates were washed with tap water five times. The cells were dyed for 30 minutes with 0.4% SRB in 1% acetic acid (50 μl/well) and subsequently washed four times with 1% acetic acid in order to remove the non-bound dye. The plates were dried and the bound dye was solubilised with 150 μl/well 10 mM Trizma buffer (Sigma Chemicals Co.). The optical density was determined with an automated plate reader (Molecular Devices Max Microplate Reader) at 540 nm. All determinations were conducted as threefold determination. The optical density was calculated with the Excel® program (Microsoft Office Package).
Series [2] has as its system S. falcium. The series can be described thus: Antimicrobial test (MIC), microtitre plates, TTC stain. The following applies: 48 h, 36° C. The class given is cell-based. How it is done:
(§1) The inoculum for the tests was prepared by diluting the microorganisms in 0.85% NaCl, the dilution was set to level 0.5 according to McFarland and checked at 580 nm in the spectrophotometer. The cell suspensions were diluted to 10^4 UFC/ml for the application in the tests. The MIC tests were carried out according to the instructions of J. N. P. Eloff (Planta Medica Vol. 64, pp. 711-713, 1998)) in microtitre plates with 96 wells. […] The inoculum (100 μl) was placed in all wells and the plates were incubated for 48 h at a temperature of 36° C. The antimicrobial activity was detected by adding 20 μl of a 0.5% aqueous solution of TTC (tetrazolium chloride, Merck) per well. The minimal inhibition concentration (MIC) was defined as the lowest concentration of the compound that inhibited visible growth (indicated by TTC stain).

The subject of series [3] is Candida albicans. The series is described as above. The following applies: 48 h, 36° C. The series is classed as cell-based. As for the experimental part: as §1
The test system of series [4] is B. subtilis. Described as above. Conditions: Bacillus subtilis, 48 h, 36° C. The series is classed as cell-based. How it is done:
as §1

For series [5], the system named is Staphylococcus aureus. Described as above. Conditions: 48 h, 36° C. The class given is cell-based. As for the experimental part:
as §1

The test system of series [6] is S. epidermides. The series is described as above. Conditions: 48 h. The class given is cell-based. How it is done:
as §1

In series [7] the test system is Escherichia coli. The series is described as above. Conditions: 48 h, 36° C. The series is classed as cell-based. As for the experimental part: as §1
For series [8], the system named is Micrococcus luteus. The description is as above. The series is classed as cell-based. The following applies: 48 h, 36° C. As for the experimental part: as §1
Series [9] deals with E. faecium. The description is as above. The series is classed as cell-based. Conditions: Enterococcus faecium, 48 h, 36° C. How it is done:
as §1

Series [10] has as its system Salmonella choterasuis. The series is described as above. The following applies: Salmonella choterasuis (Tables 3, 4: Salmonella), 48 h, 36° C. The class given is cell-based. How it is done:
as §1

Series [11] deals with Rhodococcus equi. The description is as above. The class given is cell-based. Conditions: Rhodococcus (subgen. Prescottella) equi, 48 h, 36° C. How it is done: as §1
Series [12] has as its system E. falcium. The series is described as above. The class given is cell-based. Conditions: 48 h, 36° C. How it is done: as §1
For series [13], the system named is Lung NCI-460. The following applies: for ED50 (effective dosage which killed 50% of the human cancer cells): NCI460, 48 hours incubation; for cytocidal activity: NCI-460 (lung cancer cell line).
Protocol: as §2, §3, §4, §5
Series [14] has as its system skin cancer (melanoma) UACC-62. Conditions: for ED50 (effective dosage which killed 50% of the human cancer cells): UACC62, 48 hours incubation.
Protocol: as §2, §3, §4, §5
The test system of series [15] is mamma (breast) MCF-7. The following applies: MCF7, 48 hours incubation.
Protocol: as §2, §3, §4
The sulforhodamine B (SRB) test for the antiproliferative activity was carried out according to the specifications of Skehan et al. (Journal of National Cancer Institute Vol. 82, pp. 1107-1118, 1990). […] The optical density was determined with an automated plate reader (Molecular Devices Max Microplate Reader) at 540 nm. […] The optical density was calculated with the Excel® program (Microsoft Office Package).
Series [16] deals with WI38 (fibroblasts). The series can be described thus: Comparison test on non-pathogenic line. The following applies: WI38, non-pathogenic line for comparison.

The MIC is the smallest concentration in the dilution series that meets the test's criterion for growth inhibition. Regarding `CC(=O)c1ccc(OCC=C(C)C)cc1OCC=C(C)C` [2,4O, 1-[2,4-bis(3-methylbut-2-enyloxy)phenyl]ethanone], in series [1] (against all tested cell lines), the “concentration at which cytocidal activity begins” value was determined as 250 µg/mL. Besides, the “concentration at which cytostatic activity begins” value in series [1] (against all tested cell lines) stood at 25 µg/mL. Moreover, the MIC in series [2], in series [3], in series [4], in series [5], in [6] and in series [7] was 500 to 1000 µg/mL (≈ 1730 to 3470 µM) each time. In addition, the MIC in series [8], in series [9], in series [10] and in [11] was 500 to 1000 µg/mL (≈ 1730 to 3470 µM) throughout.

For the compound `O=C(N[C@H](CO)[C@H](O)c1ccc([N+](=O)[O-])cc1)C(Cl)Cl` [Chloramphenicol, reference compound], the minimal inhibitory concentration (MIC) amounted to 120 µg/mL (≈ 371 µM) in [2]; 20 µg/mL (≈ 61.9 µM) in [4]; 20 µg/mL (≈ 61.9 µM) in [5]; 40 µg/mL (≈ 124 µM) in [6] (S. epidermides, 36° C., read-out: MIC); 40 µg/mL (≈ 124 µM) in series [7]; 120 µg/mL (≈ 371 µM) in [12]. Besides, the minimal inhibitory concentration (MIC) in series [8] was 50 µg/mL (≈ 155 µM); in [9] it was 120 µg/mL (≈ 371 µM); in [10], 60 µg/mL (≈ 186 µM); in series [11] it was 40 µg/mL (≈ 124 µM).

As to `CC(=O)c1ccccc1OCC=C(C)C` [Compound L1, 1-[2-(3-methylbut-2-enyloxy)phenyl]ethanone], the “ED50 (effective dosage which killed 50% of the human cancer cells)” value is 25.0 µg/mL in series [13], 45.0 µg/mL in [14] and 25.0 µg/mL in [15]. For the same compound, the cytocidal activity entry in series [13] and in [14] (UACC-62) was “cytocidal activity” throughout. Further, the “cytostatic activity (inhibition of cell growth)” value in series [1] (against all tested cell lines) was “cytostatic activity”. The MIC in series [3] was 60 µg/mL (≈ 294 µM); in series [4], 500 to 1000 µg/mL (≈ 2450 to 4900 µM); in series [5], 500 µg/mL (≈ 2450 µM); in series [7], > 1000 µg/mL; in [12] it was 250 µg/mL (≈ 1220 µM); in series [8], 250 to 500 µg/mL (≈ 1220 to 2450 µM). In addition, the MIC in [10] was 250 µg/mL (≈ 1220 µM); in [11], > 1000 µg/mL.

As for `CC(=O)c1cc(CC=C(C)C)ccc1O` [Compound L2], the “ED50 (effective dosage which killed 50% of the human cancer cells)” value was 9.0 µg/mL in series [13], 4.2 µg/mL in [14] and 6.0 µg/mL in series [15]. In addition, the activity against fibroblasts entry in series [16] was “not active against fibroblasts”; in series [16] (listed as 1-[2-Hydroxy-5-(3-methylbut-2-enyl)ethanone), “without damaging the fibroblasts”. In series [1] (at concentrations ranging between 0.5 and 250 μg/ml), the “activity on all cell lines” value was “very strong activity”. In addition, the minimal inhibitory concentration (MIC) was 50 µg/mL (≈ 245 µM) in series [3]; 500 to 1000 µg/mL (≈ 2450 to 4900 µM) in series [4]; > 1000 µg/mL in series [5]; 50 µg/mL (≈ 245 µM) in series [7]; 500 to 1000 µg/mL (≈ 2450 to 4900 µM) in [12]; 500 to 1000 µg/mL (≈ 2450 to 4900 µM) in [8]. The minimal inhibitory concentration (MIC) in series [10] was 500 to 1000 µg/mL (≈ 2450 to 4900 µM); in series [11] it was > 1000 µg/mL.

Regarding `CC(=O)c1cc(CC=C(C)C)ccc1OCC=C(C)C` [Compound L3, 1-[5-(3-methylbut-2-enyl)-2-(3-methylbut-2-enyloxy)phenyl]-ethanone], the minimal inhibitory concentration (MIC) was 900 µg/mL (≈ 3300 µM) in series [3]; > 1000 µg/mL in series [4]; > 1000 µg/mL in series [5]; > 1000 µg/mL in [7]; 500 to 1000 µg/mL (≈ 1840 to 3670 µM) in [12]; 500 to 1000 µg/mL (≈ 1840 to 3670 µM) in [8]. In addition, the MIC in series [10] was > 1500 µg/mL; in [11], > 1000 µg/mL.

With `C=CC(C)(C)c1cc(CC=C(C)C)cc(C(C)=O)c1O` [LMK7, 1-[3-(1,1-dimethylallyl)-2-hydroxy-5-(3-methylbut-2-enyl)phenyl]-ethanone], in [13], the cytocidal activity entry is on record as “did not, however, exhibit any cytocidal activity”. Further, the “concentration at which cytostatic activity begins” value in series [1] (against all tested cell lines) was found to be 25 µg/mL.

For orientation: melting point means the temperature of the solid-liquid transition. `CC(=O)c1ccc(OCC=C(C)C)cc1` [LP1, 1-[4-(3-methylbut-2-enyloxy)phenyl]ethanone] came in with a melting point of 47 °C. Further, in series [1] (against all tested cell lines), the “concentration at which cytocidal activity begins” value is 250 µg/mL and the “concentration at which cytostatic activity begins” value was 25 µg/mL. In addition, in series [2], the MIC was > 1500 µg/mL. For the same compound, the MIC in [3] was > 1500 µg/mL. Further, the minimum inhibitory concentration (MIC) in [4] is > 1500 µg/mL. In addition, the MIC in series [5] is > 1500 µg/mL. For the same compound, in series [6], the minimum inhibitory concentration (MIC) lay within 60 to 120 µg/mL (≈ 294 to 587 µM). Further, in series [7], the minimum inhibitory concentration (MIC) was > 1500 µg/mL. For the same compound, the MIC in [8] was > 1500 µg/mL. The MIC in series [9] is > 1500 µg/mL. The same compound showed an MIC in series [10] of 120 to 250 µg/mL (≈ 587 to 1220 µM). Moreover, the MIC in [11] was > 1500 µg/mL.
